Biological target: T1, RPS6KA1 (RSK1) (Homo sapiens, UniProt Q15418)
T1 construct: purchased Thermo Fisher Scientific (Life Technologies) SelectScreen
Assay: SelectScreen Z'LYTE
Type: biochemical
Summary of the method: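 NU5455 was profiled across the SelectScreen Broad panel of kinase activity and binding assays. Z'LYTE reactions such as CSF1R ran at apparent Km ATP, while the Adapta CAMK1 assay used ATP listed as 10. Values are given as percent.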

T1 sequence (Q15418 whole entry): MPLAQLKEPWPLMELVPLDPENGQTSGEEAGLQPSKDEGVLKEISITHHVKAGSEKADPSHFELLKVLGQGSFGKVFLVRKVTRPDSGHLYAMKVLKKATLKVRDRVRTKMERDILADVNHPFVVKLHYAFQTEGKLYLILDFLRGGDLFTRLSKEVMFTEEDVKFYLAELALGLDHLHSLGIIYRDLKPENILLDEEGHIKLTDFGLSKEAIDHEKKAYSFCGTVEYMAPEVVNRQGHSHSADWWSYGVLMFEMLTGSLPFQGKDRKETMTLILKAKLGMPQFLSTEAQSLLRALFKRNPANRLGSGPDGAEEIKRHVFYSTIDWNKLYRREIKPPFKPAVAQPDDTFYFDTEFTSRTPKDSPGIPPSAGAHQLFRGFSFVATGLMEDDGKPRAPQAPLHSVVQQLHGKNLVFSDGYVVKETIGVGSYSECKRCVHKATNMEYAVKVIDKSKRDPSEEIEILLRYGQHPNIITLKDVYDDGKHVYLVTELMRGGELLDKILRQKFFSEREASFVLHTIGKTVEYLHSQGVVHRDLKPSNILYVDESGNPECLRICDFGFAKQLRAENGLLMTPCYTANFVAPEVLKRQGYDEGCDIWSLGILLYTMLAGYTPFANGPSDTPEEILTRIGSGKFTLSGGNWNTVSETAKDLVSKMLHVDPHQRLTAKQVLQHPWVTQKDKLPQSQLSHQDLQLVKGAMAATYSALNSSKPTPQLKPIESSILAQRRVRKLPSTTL

With `CN(C(=O)CN1CCOCC1)c1ccc2sc3c(-c4cccc5c(=O)cc(N6CC7CCC(C6)O7)oc45)cccc3c2c1` [NU5455] as the molecule, how does the inhibition at 1 µM read?
The inhibition at 1 µM was 5.7%.
